Measurements taken from ChEMBL document CHEMBL3352305, “Podoverine A--a novel microtubule destabilizing natural product from the Podophyllum species” (Bioorg Med Chem, 2014).
Activity calls are given as the source filed them. The rule behind the calls is not given here.

Columns and labels:
[1] = system: HeLa; test: Cell cycle arrest in human HeLa cells assessed as <2N stage DNA at 5 uM for 20 hrs by PI staining/FACS analysis (reference value: 2.19 no unit); assay type: functional
[2] = system: MCF7; test: Cell cycle arrest in human MCF7 cells assessed as 4N stage DNA at 1 uM for 20 hrs by PI staining/FACS analysis (Rvb =40.8 no unit); assay type: functional
[3] = Cell cycle arrest in human PC3 cells assessed as 4N stage DNA at 1 uM for 20 hrs by PI staining/FACS analysis (Rvb =34.4 no unit); assay type: functional, cell-based; conditions: PC-3
[4] = biological target: T1, Tubulin (Homo sapiens) (UniProt P68371+Q9H4B7+P0DPH7+P68366+Q13509+Q71U36+P04350+Q3ZCM7+P07437+P68363+Q9BQE3+Q6PEY2+Q13885+Q9BVA1+Q9BUF5); test: Displacement of colchicine from tubulin (unknown origin) by FITC staining; assay type: protein-complex assay
[5] = Cell cycle arrest in human PC3 cells assessed as 2N stage DNA at 5 uM for 20 hrs by PI staining/FACS analysis (reference value: 42 no unit); assay type: functional, cell-based; conditions: PC-3
[6] = system: HeLa; test: Cell cycle arrest in human HeLa cells assessed as >4N stage DNA at 5 uM for 20 hrs by PI staining/FACS analysis (reference value: 14.2 no unit); assay type: functional
[7] = system: HeLa; test: Cell cycle arrest in human HeLa cells assessed as 2N stage DNA at 1 uM for 20 hrs by PI staining/FACS analysis (reference value: 58 no unit); assay type: functional
[8] = system: MCF7; test: Cell cycle arrest in human MCF7 cells assessed as >4N stage DNA at 5 uM for 20 hrs by PI staining/FACS analysis (Rvb =23.8 no unit); assay type: functional
[9] = system: MCF7; test: Cell cycle arrest in human MCF7 cells assessed as <2N stage DNA at 5 uM for 20 hrs by PI staining/FACS analysis (reference value: 0.39 no unit); assay type: functional
[10] = system: MCF7; test: Cell cycle arrest in human MCF7 cells assessed as 2N stage DNA at 5 uM for 20 hrs by PI staining/FACS analysis (reference value: 31.6 no unit); assay type: functional
[11] = Cell cycle arrest in human PC3 cells assessed as <2N stage DNA at 5 uM for 20 hrs by PI staining/FACS analysis (reference value: 0.59 no unit); assay type: functional, cell-based; conditions: PC-3
[12] = system: HeLa; test: Mitotic arrest in human HeLa cells assessed as structure at 3 uM for 60 mins and measured after 20 hrs of washout and applied 3 uM after washout by FITC staining; assay type: functional, cell-based
[13] = system: BSC-1; test: Mitotic arrest in African green monkey BSC1 cells assessed as accumulation of round cells with intense stained tubulin and DNA structures at 3 uM for 20 hrs by FITC/TRITC staining; assay type: functional, cell-based; conditions: Chlorocebus aethiops
[14] = Cell cycle arrest in human PC3 cells assessed as 2N stage DNA at 1 uM for 20 hrs by PI staining/FACS analysis (reference value: 42 no unit); assay type: functional, cell-based; conditions: PC-3
[15] = system: MCF7; test: Cell cycle arrest in human MCF7 cells assessed as 2N stage DNA at 1 uM for 20 hrs by PI staining/FACS analysis (reference value: 31.6 no unit); assay type: functional
[16] = system: HeLa; test: Mitotic arrest in human HeLa cells assessed as cells devoid of mitotic spindles at 3 uM for 20 hrs by FITC/TRITC staining; assay type: functional, cell-based
[17] = biological target: Tubulin (Sus scrofa) (UniProt P02554+P02550); test: Inhibition of porcine brain tubulin polymerization at 50 uM by turbidity assay
[18] = system: MCF7; test: Cell cycle arrest in human MCF7 cells assessed as >4N stage DNA at 1 uM for 20 hrs by PI staining/FACS analysis (Rvb =23.8 no unit); assay type: functional
[19] = biological target: Tubulin; test: (§1) Displacement of BODIPY-FL-vinblastine from tubulin (unknown origin); assay type: protein-complex assay, Homo sapiens
[20] = biological target: T1, Tubulin (Homo sapiens); test: as §1; assay type: protein-complex assay
[21] = system: BSC-1; test: Inhibition of repolymerization of microtubule in cold treated African green monkey BSC1 cells at 5 uM for 20 hrs by DAPI staining; assay type: cell-based; conditions: Chlorocebus aethiops
[22] = system: MCF7; test: Cell cycle arrest in human MCF7 cells assessed as 4N stage DNA at 5 uM for 20 hrs by PI staining/FACS analysis (Rvb =40.8 no unit); assay type: functional
[23] = system: HeLa; test: Cell cycle arrest in human HeLa cells assessed as 2N stage DNA at 5 uM for 20 hrs by PI staining/FACS analysis (reference value: 58 no unit); assay type: functional
[24] = Cell cycle arrest in human PC3 cells assessed as >4N stage DNA at 5 uM for 20 hrs by PI staining/FACS analysis (Rvb =23 no unit); assay type: functional, cell-based; conditions: PC-3
[25] = system: HeLa; test: Mitotic arrest in human HeLa cells assessed as structure at 3 uM for 60 mins and measured after 20 hrs of washout by FITC staining; assay type: functional, cell-based
[26] = system: HeLa; test: Mitotic arrest in human HeLa cells assessed as increase in accumulation at G2/M phase at 5 uM for 24 hrs by PI staining/FACS analysis; assay type: functional, cell-based
[27] = system: HeLa; test: Mitotic arrest in human HeLa cells assessed as accumulation of round cells with intense stained tubulin and DNA structures at 3 uM for 20 hrs by FITC/TRITC staining; assay type: functional, cell-based
[28] = system: MCF7; test: Cell cycle arrest in human MCF7 cells assessed as <2N stage DNA at 1 uM for 20 hrs by PI staining/FACS analysis (reference value: 0.39 no unit); assay type: functional
[29] = system: HeLa; test: Cell cycle arrest in human HeLa cells assessed as 4N stage DNA at 1 uM for 20 hrs by PI staining/FACS analysis (reference value: 24.8 no unit); assay type: functional
[30] = system: HeLa; test: Cell cycle arrest in human HeLa cells assessed as >4N stage DNA at 1 uM for 20 hrs by PI staining/FACS analysis (reference value: 14.2 no unit); assay type: functional
[31] = system: HeLa; test: Mitotic arrest in human HeLa cells assessed as cells with condensed chromosomes not aligned to metaphase plate at 3 uM for 20 hrs by FITC/TRITC staining; assay type: functional, cell-based
[32] = system: HeLa; test: Cytotoxicity against human HeLa cells assessed as inhibition of cell viability after 24 hrs by WST1 assay; assay type: functional, cell-based
[33] = Cell cycle arrest in human PC3 cells assessed as 4N stage DNA at 5 uM for 20 hrs by PI staining/FACS analysis (Rvb =34.4 no unit); assay type: functional, cell-based; conditions: PC-3
[34] = Cell cycle arrest in human PC3 cells assessed as <2N stage DNA at 1 uM for 20 hrs by PI staining/FACS analysis (reference value: 0.59 no unit); assay type: functional, cell-based; conditions: PC-3
[35] = Cell cycle arrest in human PC3 cells assessed as >4N stage DNA at 1 uM for 20 hrs by PI staining/FACS analysis (Rvb =23 no unit); assay type: functional, cell-based; conditions: PC-3
[36] = system: HeLa; test: Cell cycle arrest in human HeLa cells assessed as 4N stage DNA at 5 uM for 20 hrs by PI staining/FACS analysis (reference value: 24.8 no unit); assay type: functional
[37] = system: HeLa; test: Cell cycle arrest in human HeLa cells assessed as <2N stage DNA at 1 uM for 20 hrs by PI staining/FACS analysis (reference value: 2.19 no unit); assay type: functional
[38] = system: HeLa; test: Mitotic arrest in human HeLa cells assessed as increase in accumulation at G2/M phase at 1 uM for 24 hrs by PI staining/FACS analysis; assay type: functional, cell-based

Chain of Tubulin (Sus scrofa) (P02550 whole entry, looked up): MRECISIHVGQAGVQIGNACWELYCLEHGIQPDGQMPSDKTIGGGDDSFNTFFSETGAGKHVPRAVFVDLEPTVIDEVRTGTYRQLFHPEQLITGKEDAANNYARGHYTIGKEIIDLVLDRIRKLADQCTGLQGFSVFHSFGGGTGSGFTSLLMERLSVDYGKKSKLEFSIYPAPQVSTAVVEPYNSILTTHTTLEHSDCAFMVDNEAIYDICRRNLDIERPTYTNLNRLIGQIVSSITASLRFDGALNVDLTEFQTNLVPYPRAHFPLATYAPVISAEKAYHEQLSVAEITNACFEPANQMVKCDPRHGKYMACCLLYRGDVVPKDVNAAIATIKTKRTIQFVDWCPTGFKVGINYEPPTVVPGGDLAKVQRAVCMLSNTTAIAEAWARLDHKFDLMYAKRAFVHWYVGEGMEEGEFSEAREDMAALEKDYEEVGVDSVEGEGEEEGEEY
Chain of Tubulin (Sus scrofa) (P02554 whole entry, looked up): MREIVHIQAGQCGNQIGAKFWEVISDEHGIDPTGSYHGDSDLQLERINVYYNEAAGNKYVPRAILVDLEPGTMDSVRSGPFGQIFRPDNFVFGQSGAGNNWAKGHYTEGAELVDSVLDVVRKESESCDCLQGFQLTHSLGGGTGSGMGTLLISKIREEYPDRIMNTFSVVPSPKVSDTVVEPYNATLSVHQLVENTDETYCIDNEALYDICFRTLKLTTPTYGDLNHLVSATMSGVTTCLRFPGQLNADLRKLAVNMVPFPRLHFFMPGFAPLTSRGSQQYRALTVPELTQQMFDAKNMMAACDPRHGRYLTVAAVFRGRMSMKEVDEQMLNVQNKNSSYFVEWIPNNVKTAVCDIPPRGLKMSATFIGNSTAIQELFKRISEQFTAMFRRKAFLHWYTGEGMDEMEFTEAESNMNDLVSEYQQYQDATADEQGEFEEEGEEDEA

`COc1c(-c2ccc(O)c(O)c2CC=C(C)C)oc2cc(O)cc(O)c2c1=O` showed a Flu intensity [1] of 9.84, a Flu intensity [2] of 36.3 and a Flu intensity [3] of 42. The Activity [4] was “inactive”, the Flu intensity [5] was 9.24 and the Flu intensity [6] was 21.8. It also gave a Flu intensity [7] of 40.4, a Flu intensity [8] of 27 and a Flu intensity [9] of 2. For the same compound, the Flu intensity [10] was 9.57, the Flu intensity [11] was 12.6 and the Activity [12] was “Active”. The Activity [13] was “Active”, the Flu intensity [14] was 27.6 and the Flu intensity [15] was 32. The Activity [16] was “Active”, the inhibition [17] was “Active” and the Flu intensity [18] was 29.6. The EC50 [19] was 14.7 µM, the inhibition [20] was “Dose-dependent effect” and the inhibition [21] was “Active”. For the same compound, the Flu intensity [22] was 61.5, the Flu intensity [23] was 9.6 and the Flu intensity [24] was 30.8. For the same compound, the Activity [25] was “inactive”, the Activity [26] was “Active” and the Activity [27] was “Active”. For the same compound, the Flu intensity [28] was 1.07, the Flu intensity [29] was 40.2 and the Flu intensity [30] was 13.8. The Activity [31] was “Active”, the IC50 [32] was 0.79 µM and the inhibition [32] was “Dose-dependent effect”. The Flu intensity [33] was 47.5, the Flu intensity [34] was 2.23 and the Flu intensity [35] was 26.5. The Flu intensity [36] was 58.2 and the Flu intensity [37] was 5.6.

`COC(=O)Nc1nc2cc(C(=O)c3cccs3)ccc2[nH]1` [NOCODAZOLE] gave a Flu intensity [2] of 57.5, a Flu intensity [3] of 51.7 and a Flu intensity [7] of 8.61. For the same compound, the Flu intensity [14] was 7.64, the Flu intensity [15] was 9.16 and the Flu intensity [18] was 30.7. The Flu intensity [28] was 0.72, the Flu intensity [29] was 64.7 and the Flu intensity [30] was 16.9. The Flu intensity [34] was 10.7, the Activity [38] was “Active” and the Flu intensity [35] was 29.4. For the same compound, the Flu intensity [37] was 9.75.
